Results as given in patent publication US20250275959A1, “COMPOUNDS AND METHODS OF THEIR USE” (LEXICON PHARMACEUTICALS, INC., priority 2024, published 2025).

Assays:
hACSL5 [1] = molecular target: T1, hACSL5 (Homo sapiens (Human), UniProt Q9ULC5); experiment: Human ACSL5 coupled enzyme Amplex Red assay; type: biochemical; details: read-out: hACSL5 IC50
Outline: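 C-terminally His-tagged ACSL5 (33-683) from sf9 cells, 20 nM, was preincubated with compound in MOPS-NaOH pH 7.6 with MgCl2, peroxidase and acyl-CoA oxidase. Reactions were started with 25 μM oleate, 30 μM CoA, 1 mM ATP and 50 μM Amplex Red; fluorescence (535/590 nm) after 10 minutes at 25° C. was fitted to the Hill equation for IC50 and maximal inhibition.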
Target sequence in this assay (Q9ULC5 33-683): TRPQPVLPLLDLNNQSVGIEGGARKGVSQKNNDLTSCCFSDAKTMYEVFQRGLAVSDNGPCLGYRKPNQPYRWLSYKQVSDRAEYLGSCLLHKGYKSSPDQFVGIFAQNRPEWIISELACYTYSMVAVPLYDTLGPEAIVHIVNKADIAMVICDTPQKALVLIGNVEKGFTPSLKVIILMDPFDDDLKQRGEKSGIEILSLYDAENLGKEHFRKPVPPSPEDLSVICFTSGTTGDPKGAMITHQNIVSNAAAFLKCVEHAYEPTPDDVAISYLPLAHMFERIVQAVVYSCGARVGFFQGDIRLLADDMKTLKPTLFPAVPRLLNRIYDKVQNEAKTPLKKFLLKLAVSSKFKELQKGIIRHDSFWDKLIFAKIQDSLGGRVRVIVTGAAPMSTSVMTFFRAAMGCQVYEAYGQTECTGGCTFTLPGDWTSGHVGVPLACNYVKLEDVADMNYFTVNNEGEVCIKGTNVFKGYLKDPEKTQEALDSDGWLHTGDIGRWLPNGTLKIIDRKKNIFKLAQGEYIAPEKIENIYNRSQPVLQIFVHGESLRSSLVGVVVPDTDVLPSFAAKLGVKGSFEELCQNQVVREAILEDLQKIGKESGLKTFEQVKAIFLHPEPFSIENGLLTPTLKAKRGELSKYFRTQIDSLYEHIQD

hACSL5 [2] = molecular target: T1, hACSL5; experiment: Cell-based assay (CBA) with B12FA in hACSL5-transfected Expi293F / FlpIn TRex293 cells; details: hACSL5-expressing cells
From the text: To assess the cell penetration and cellular activity of the compounds, a cell-based assay (CBA) was used to detect compound potency in living cells. The assay utilized the fluorescent fatty acid analogue B12FA, a boron-dipyrromethene (BODIPY™) labelled C12 fatty acid that can be incorporated into glycerophosphocholine in the cytoplasmic oil droplets of live cells. A concentration-dependent, red-shifted fluorescence can be induced by the formation of BODIPY™ excimers in the oil droplets.
Expi293F cells transfected with full length hACSL5 plasmid were selected using 1 mg/mL G418 culture medium and clones were selected by in vitro whole cell lysate (WCL) assay. The cell passage number used in the Expi293 CBA assay could not be used beyond 10 passages due to a decrease in hACSL5 expression. Therefore, a CBA using FlpIn TRex293 cells for inducible expression of hACSL5 was also established.
FlpIn TRex293 cells transfected with hACSL5 plasmid were selected in culture medium containing 15 µg/ml Blasticidin and 150 µg/ml Hygromycin. For cell-based assays, stable transfected hACSL5 cells were seeded onto a 96-well plate at 30-50k/well and incubated overnight. For the inducible system, […] tetracycline (or doxycycline) was added to culture medium of FlpIn TRex293 hACSL5 cells on the day before the assay to induce expression of hACSL5. The next day, growth media was replaced with culture medium without FBS and glucose (DMEM glucose (-), ThermoFisher) and cells were incubated for an hour before treating cells with serial diluted compounds containing 20 µM B12FA (ThermoFisher) for another 3 hours in the above medium. Cells were then fixed in 4% formaldehyde for 10 minutes and washed twice with PBS. The plate was read using the Cytation 5 imaging system with an excitation wavelength of 485 nm and observed emissions at 630 nm and 520 nm. The percentage of inhibition was calculated as: […]
wherein A is the ratio of emission intensities at 630 nm/520 nm in the absence of inhibitor (maximum ratio); B is the ratio of the intensities at those wavelengths in the presence of […] of the test compound or non-induced cells (minimum ratio); and X is the ratio of the intensities at a given compound concentration.
Concentration-response titration points for each compound tested were filled to the Hill equation yielding concentrations of half maximal inhibition […] and maximal inhibition values.
Target sequence in this assay (Q9ULC5 whole entry): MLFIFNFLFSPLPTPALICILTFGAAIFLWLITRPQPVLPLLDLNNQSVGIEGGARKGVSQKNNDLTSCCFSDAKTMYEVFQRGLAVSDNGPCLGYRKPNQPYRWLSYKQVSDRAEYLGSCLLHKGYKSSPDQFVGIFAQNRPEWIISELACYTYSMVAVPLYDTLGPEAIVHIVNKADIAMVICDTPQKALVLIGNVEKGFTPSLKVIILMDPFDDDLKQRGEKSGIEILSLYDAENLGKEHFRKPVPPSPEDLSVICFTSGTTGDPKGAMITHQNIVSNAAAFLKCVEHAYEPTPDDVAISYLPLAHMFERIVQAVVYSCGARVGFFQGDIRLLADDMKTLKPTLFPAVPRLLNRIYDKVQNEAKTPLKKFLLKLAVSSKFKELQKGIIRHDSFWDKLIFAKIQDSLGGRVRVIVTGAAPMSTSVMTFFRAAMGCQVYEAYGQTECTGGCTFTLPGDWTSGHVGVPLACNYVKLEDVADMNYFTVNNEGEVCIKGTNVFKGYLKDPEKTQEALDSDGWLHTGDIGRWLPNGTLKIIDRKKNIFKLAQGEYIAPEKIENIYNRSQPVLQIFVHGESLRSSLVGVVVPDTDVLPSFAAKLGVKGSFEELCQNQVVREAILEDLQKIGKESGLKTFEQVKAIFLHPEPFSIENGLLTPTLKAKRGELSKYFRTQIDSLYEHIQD

Compound | IC50 (hACSL5 [1]) | IC50 (hACSL5 [2])
CC[C@@H](Oc1ccc(C(=O)NS(=O)(=O)c2ccc(O[C@@H]3CCN(C)C3)cc2)c(F)c1F)c1ccc(OCC2CC2)cn1 [4-((R)-1-(5-(cyclopropylmethoxy)pyridin-2-yl)propoxy)-2,3-difluoro-N-((4-(((R)-1-methylpyrrolidin-3-yl)oxy)phenyl)sulfonyl)benzamide] | < 100 nM | 100 to 500 nM
CC[C@@H](Oc1ccc(C(=O)NS(=O)(=O)N2CCN(C)CC2)cc1C(F)(F)F)c1ccc(OC2CC(OC)C2)cn1 (stereo partly drawn) [4-((R)-1-(5-((1R,3R)-3-methoxycyclobutoxy)pyridin-2-yl)propoxy)-N-((4-methylpiperazin-1-yl)sulfonyl)-3-(trifluoromethyl)benzamide] | 100 to 500 nM | 100 to 500 nM
CC[C@@H](Oc1ccc(C(=O)NS(=O)(=O)c2ccc(O[C@@H]3C[C@H]4C[C@@H]3CN4C)cc2)c(F)c1F)c1ccc(OCC2CC2)cn1 [4-((R)-1-(5-(cyclopropylmethoxy)pyridin-2-yl)propoxy)-2,3-difluoro-N-((4-(((1R,4R,5R)-2-methyl-2-azabicyclo[2.2.1]heptan-5-yl)oxy)phenyl)sulfonyl)benzamide] | < 100 nM | > 500 nM
CC[C@@H](Oc1ccc(C(=O)NS(=O)(=O)N2CC3CCC(C2)N3C)c(F)c1F)c1ccc(OCC2CC2)cn1 [4-((R)-1-(5-(cyclopropylmethoxy)pyridin-2-yl)propoxy)-2,3-difluoro-N-((8-methyl-3,8-diazabicyclo[3.2.1]octan-3-yl)sulfonyl)benzamide] | < 100 nM | < 100 nM
CC[C@@H](Oc1ccc(C(=O)NS(=O)(=O)c2ccc(OCCN(C)C)cc2)c(F)c1F)c1ccc(OC2CC(OC)C2)cn1 (stereo partly drawn) [N-((4-(2-(dimethylamino)ethoxy)phenyl)sulfonyl)-2,3-difluoro-4-((R)-1-(5-((1R,3R)-3-methoxycyclobutoxy)pyridin-2-yl)propoxy)benzamide] | < 100 nM | 100 to 500 nM
CC[C@@H](Oc1ccc(C(=O)NS(=O)(=O)N2CC3CC(C2)N3C)c(F)c1F)c1ccc(OCC2CC2)cn1 [4-((R)-1-(5-(cyclopropylmethoxy)pyridin-2-yl)propoxy)-2,3-difluoro-N-((6-methyl-3,6-diazabicyclo[3.1.1]heptan-3-yl)sulfonyl)benzamide] | < 100 nM | < 100 nM
CC[C@@H](Oc1ccc(C(=O)NS(=O)(=O)c2ccc(OC3CCN(CCOC)CC3)cc2)c(F)c1F)c1ccc(OCC2CC2)cn1 [(R)-4-(1-(5-(cyclopropylmethoxy)pyridin-2-yl)propoxy)-2,3-difluoro-N-((4-((1-(2-methoxyethyl)piperidin-4-yl)oxy)phenyl)sulfonyl)benzamide] | < 100 nM | < 100 nM
CC[C@@H](Oc1ccc(C(=O)NS(=O)(=O)C2CCN(C)CC2)c(F)c1F)c1ccc(OCC2CC2)cn1 [(R)-4-(1-(5-(cyclopropylmethoxy)pyridin-2-yl)propoxy)-2,3-difluoro-N-((1-methylpiperidin-4-yl)sulfonyl)benzamide] | 100 to 500 nM | > 500 nM
CC[C@@H](Oc1ccc(C(=O)NS(=O)(=O)c2ccc(OCCN(C)C)cc2)cc1C(F)(F)F)c1ccc(OCC2CC2)cn1 [(R)-4-(1-(5-(cyclopropylmethoxy)pyridin-2-yl)propoxy)-N-((4-(2-(dimethylamino)ethoxy)phenyl)sulfonyl)-3-(trifluoromethyl)benzamide] | < 100 nM | 100 to 500 nM
C[C@@H](Oc1ccc(C(=O)NS(=O)(=O)c2ccc(OCCN(C)C)cc2)cc1C(F)(F)F)c1ccc(Oc2ccccn2)cn1 [(R)-N-((4-(2-(dimethylamino)ethoxy)phenyl)sulfonyl)-4-(1-(5-(pyridin-2-yloxy)pyridin-2-yl)ethoxy)-3-(trifluoromethyl)benzamide] | < 100 nM | < 100 nM

More lines, now with the values ahead:

IC50 (hACSL5 [1]) | IC50 (hACSL5 [2]) | Compound
< 100 nM | 100 to 500 nM | CC[C@@H](Oc1ccc(C(=O)NS(=O)(=O)c2ccc(OC3CN(C)C3)cc2)c(F)c1F)c1ccc(OCC2CC2)cn1 [(R)-4-(1-(5-(cyclopropylmethoxy)pyridin-2-yl)propoxy)-2,3-difluoro-N-((4-((1-methylazetidin-3-yl)oxy)phenyl)sulfonyl)benzamide]
< 100 nM | > 500 nM | CC[C@@H](Oc1ccc(C(=O)NS(=O)(=O)c2ccc(O[C@@H]3C[C@H]4C[C@@H]3CN4)cc2)c(F)c1F)c1ccc(OCC2CC2)cn1 [N-((4-(((1R,4R,5R)-2-azabicyclo[2.2.1]heptan-5-yl)oxy)phenyl)sulfonyl)-4-((R)-1-(5-(cyclopropylmethoxy)pyridin-2-yl)propoxy)-2,3-difluorobenzamide]
< 100 nM | < 100 nM | CC[C@@H](Oc1ccc(C(=O)NS(=O)(=O)c2ccc(OCCN(C)C)cc2)cc1C(F)(F)F)c1ccc(Oc2ccccn2)cn1 [(R)-N-((4-(2-(dimethylamino)ethoxy)phenyl)sulfonyl)-4-(1-(5-(pyridin-2-yloxy)pyridin-2-yl)propoxy)-3-(trifluoromethyl)benzamide]
< 100 nM | > 500 nM | CC[C@@H](Oc1ccc(C(=O)NS(=O)(=O)c2ccc(NC3CCN(C)CC3)nc2)c(F)c1F)c1ccc(OCC2CC2)cn1 [(R)-4-(1-(5-(cyclopropylmethoxy)pyridin-2-yl)propoxy)-2,3-difluoro-N-((6-((1-methylpiperidin-4-yl)amino)pyridin-3-yl)sulfonyl)benzamide]
< 100 nM | < 100 nM | CC[C@@H](Oc1ccc(C(=O)NS(=O)(=O)N2CCN(C)CC2)cc1C(F)(F)F)c1ccc(Oc2ccccn2)cn1 [(R)-N-((4-methylpiperazin-1-yl)sulfonyl)-4-(1-(5-(pyridin-2-yloxy)pyridin-2-yl)propoxy)-3-(trifluoromethyl)benzamide]
< 100 nM | < 100 nM | CC[C@@H](Oc1ccc(C(=O)NS(=O)(=O)N2CCN(CC)CC2)c(F)c1F)c1ccc(OCC2CC2)cn1 [(R)-4-(1-(5-(cyclopropylmethoxy)pyridin-2-yl)propoxy)-N-((4-ethylpiperazin-1-yl)sulfonyl)-2,3-difluorobenzamide]
100 to 500 nM | > 500 nM | CC[C@@H](Oc1ccc(C(=O)NS(=O)(=O)N2CC3(CC(OCCN(C)C)C3)C2)c(F)c1F)c1ccc(OCC2CC2)cn1 [(R)-4-(1-(5-(cyclopropylmethoxy)pyridin-2-yl)propoxy)-N-((6-(2-(dimethylamino)ethoxy)-2-azaspiro[3.3]heptan-2-yl)sulfonyl)-2,3-difluorobenzamide]
< 100 nM | 100 to 500 nM | CC[C@@H](Oc1ccc(C(=O)NS(=O)(=O)c2ccc(OC34CCN(CC3)C4)cc2)c(F)c1F)c1ccc(OCC2CC2)cn1 [(R)-N-((4-((1-azabicyclo[2.2.1]heptan-4-yl)oxy)phenyl)sulfonyl)-4-(1-(5-(cyclopropylmethoxy)pyridin-2-yl)propoxy)-2,3-difluorobenzamide]
< 100 nM | < 100 nM | CC[C@@H](Oc1ccc(C(=O)NS(=O)(=O)c2ccc(OCCN3CCCCC3)cc2)c(F)c1F)c1ccc(OCC2CC2)cn1 [(R)-4-(1-(5-(cyclopropylmethoxy)pyridin-2-yl)propoxy)-2,3-difluoro-N-((4-(2-(piperidin-1-yl)ethoxy)phenyl)sulfonyl)benzamide]
< 100 nM | < 100 nM | CC[C@@H](Oc1ccc(C(=O)NS(=O)(=O)N2CCN(CC(C)(C)F)CC2)c(F)c1F)c1ccc(OCC2CC2)cn1 [(R)-4-(1-(5-(cyclopropylmethoxy)pyridin-2-yl)propoxy)-2,3-difluoro-N-((4-(2-fluoro-2-methylpropyl)piperazin-1-yl)sulfonyl)benzamide]
< 100 nM | > 500 nM | CC[C@@H](Oc1ccc(C(=O)NS(=O)(=O)c2ccc(CN3CCN(CC)CC3)nc2)c(F)c1F)c1ccc(OCC2CC2)cn1 [(R)-4-(1-(5-(cyclopropylmethoxy)pyridin-2-yl)propoxy)-N-((6-((4-ethylpiperazin-1-yl)methyl)pyridin-3-yl)sulfonyl)-2,3-difluorobenzamide]
< 100 nM | 100 to 500 nM | CC[C@@H](Oc1ccc(C(=O)NS(=O)(=O)N2CCN(C3CCCC3)CC2)c(F)c1F)c1ccc(OCC2CC2)cn1 [(R)-N-((4-cyclopentylpiperazin-1-yl)sulfonyl)-4-(1-(5-(cyclopropylmethoxy)pyridin-2-yl)propoxy)-2,3-difluorobenzamide]
